Results taken from patent publication US8163724B2, “Glucocorticosteroids, processes for their preparation, pharmaceutical compositions containing them and their use in therapy” (AstraZeneca AB, priority 2007, dated 2012).

target: T1, recombinant human GR (Homo sapiens, UniProt P04150); assay: Human Glucocorticoid Receptor (GR) Assay (fluorescence polarization, Panvera/Invitrogen kit); type: binding; settings: fluorescence polarization; GS Red tracer; 2 hours at room temperature; 100% control 10 μM Dexamethasone; read-out: Inhibition of GR binding, IC50
T1 construct: purchased Panvera/Invitrogen P2812 (kit P2893)
T1 sequence (P04150 1-777): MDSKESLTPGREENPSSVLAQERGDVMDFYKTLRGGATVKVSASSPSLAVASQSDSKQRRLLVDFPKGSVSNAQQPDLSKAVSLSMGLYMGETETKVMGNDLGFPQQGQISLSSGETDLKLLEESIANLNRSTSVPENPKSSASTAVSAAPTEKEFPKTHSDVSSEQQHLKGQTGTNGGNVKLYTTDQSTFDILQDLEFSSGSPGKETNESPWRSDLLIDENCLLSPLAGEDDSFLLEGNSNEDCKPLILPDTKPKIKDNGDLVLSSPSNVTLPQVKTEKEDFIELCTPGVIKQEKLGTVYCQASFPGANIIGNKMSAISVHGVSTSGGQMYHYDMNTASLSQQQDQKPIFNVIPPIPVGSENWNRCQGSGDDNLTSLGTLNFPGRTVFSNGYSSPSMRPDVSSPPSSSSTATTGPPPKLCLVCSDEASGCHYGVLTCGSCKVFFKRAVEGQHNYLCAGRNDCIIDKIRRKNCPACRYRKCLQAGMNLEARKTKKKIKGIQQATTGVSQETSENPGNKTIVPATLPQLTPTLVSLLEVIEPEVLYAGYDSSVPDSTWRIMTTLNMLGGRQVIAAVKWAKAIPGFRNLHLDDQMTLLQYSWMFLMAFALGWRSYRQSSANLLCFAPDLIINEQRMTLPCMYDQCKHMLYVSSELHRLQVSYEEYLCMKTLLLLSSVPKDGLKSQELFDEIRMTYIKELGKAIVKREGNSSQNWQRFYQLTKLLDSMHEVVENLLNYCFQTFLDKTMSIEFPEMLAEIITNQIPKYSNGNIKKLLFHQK
Summary of the method: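 Fluorescence polarization competition with recombinant GR and GS Red fluorescent ligand plus stabilizing peptide and DTT in potassium phosphate/sodium molybdate/EDTA buffer with DMSO. Incubated 2 hours at room temperature in the dark; 0% control DMSO, 100% control 10 μM dexamethasone.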

Point of comparison: `CC(=O)OCSC(=O)[C@@]1(OC(=O)c2ccco2)CC[C@H]2[C@@H]3CCC4=Cc5c(cnn5-c5ccc(F)cc5)C[C@]4(C)[C@H]3[C@@H](O)C[C@@]21C` [Example 94, (1R,3aS,3bS,10aR,10bS,11S,12aS)-1-({[(Acetyloxy)methyl]sulfanyl}carbonyl)-7-(4-fluorophenyl)-11-hydroxy-10a,12a-dimethyl-1,2,3,3a,3b,4,5,7,10,10a,10b,11,12,12a-tetradecahydrocyclopenta[5,6]naphtho[1,2-f]indazol-1-yl furan-2-carboxylate], IC50 5.9 nM. Against it:
- C[C@]12Cc3cnn(-c4ccccn4)c3C=C1CC[C@@H]1[C@@H]2[C@@H](O)C[C@@]2(C)[C@H]1CC[C@]2(OC(=O)C1CC1)C(=O)OCC#N [Example 143, Cyanomethyl(1R,3aS,3bS,10aR,10bS,11S,12aS)-1-[(cyclopropylcarbonyl)oxy]-11-hydroxy-10a,12a-dimethyl-7-pyridin-2-yl-1,2,3,3a,3b,4,5,7,10,11a,10b,11,12,12a-tetradecahydrocyclopenta[5,6]naphtho[1,2-f]indazole-1-carboxylate] — 3.9-fold lower, 1.5 nM
- CN(C)C(=O)SC(=O)[C@@]1(OC(=O)c2ccco2)CC[C@H]2[C@@H]3CCC4=Cc5c(cnn5-c5cc(F)cc(F)c5)C[C@]4(C)[C@H]3[C@@H](O)C[C@@]21C [Example 107, (1R,3aS,3bS,10aR,10bS,11S,12aS)-7-(3,5-Difluorophenyl)-1-{[(dimethylcarbamoyl)sulfanyl]carbonyl}-11-hydroxy-10a,12a-dimethyl-1,2,3,3a,3b,4,5,7,10,10a,10b,11,12,12a-tetradecahydrocyclopenta[5,6]naphtho[1,2-f]indazol-1-yl furan-2-carboxylate] — 10-fold higher, 59 nM
- CCC(=O)O[C@]1(C(=O)SCCCO)CC[C@H]2[C@@H]3CCC4=Cc5c(cnn5-c5ccc(F)cc5)C[C@]4(C)[C@H]3[C@@H](O)C[C@@]21C [Example 24, (1R,3aS,3bS,10aR,10bS,11S,12aS)-7-(4-Fluorophenyl)-11-hydroxy-1-{[(3-hydroxy-propyl)thio]carbonyl}-10a,12a-dimethyl-1,2,3,3a,3b,4,5,7,10,10a,10b,11,12,12a-tetradecahydrocyclopenta[5,6]naphtho[1,2-f]indazol-1-yl propanoate] — within 1.5-fold, 5.1 nM
- CSC(=O)[C@@]1(OC(=O)[C@H]2CCCO2)CC[C@H]2[C@@H]3CCC4=Cc5c(cnn5-c5ccc(F)nc5)C[C@]4(C)[C@H]3[C@@H](O)C[C@@]21C [Example 188, (1R,3aS,3bS,10aR,10bS,11S,12aS)-7-(6-Fluoropyridin-3-yl)-11-hydroxy-10a,12a-dimethyl-1-[(methylsulfanyl)carbonyl]-1,2,3,3a,3b,4,5,7,10,10a,10b,11,12,12a-tetradecahydrocyclopenta[5,6]naphtho[1,2]-indazol-1-yl (2R)-tetrahydrofuran-2-carboxylate] — 4.9-fold lower, 1.2 nM
- CC(=O)O[C@]1(C(=O)CSC(C)=O)CC[C@H]2[C@@H]3CCC4=Cc5c(cnn5-c5ccc(F)cc5)C[C@]4(C)[C@H]3[C@@H](O)C[C@@]21C [Example 123, (1R,3aS,3bS,10aR,10bS,11S,12aS)-1-[(Acetylsulfanyl)acetyl]-7-(4-fluorophenyl)-11-hydroxy-10a,12a-dimethyl-1,2,3,3a,3b,4,5,7,10,10a,10b,11,12,12a-tetradecahydrocyclopenta[5,6]naphtho[1,2-f]indazol-1-yl acetate] — within 1.5-fold, 5.4 nM
- C[C@]12Cc3cnn(-c4ccc(F)cc4)c3C=C1CC[C@@H]1[C@@H]2[C@@H](O)C[C@@]2(C)[C@H]1CC[C@]2(OC(=O)c1nccs1)C(=O)SCC#N [Example 39, (1R,3aS,3bS,10aR,10bS,11S,12aS)-1-{[(Cyanomethyl)thio]carbonyl}-7-(4-fluorophenyl)-11-hydroxy-10a,12a-dimethyl-1,2,3,3a,3b,4,5,7,10,10a,10b,11,12,12a-tetradecahydropcyclopenta[5,6]naphtho[1,2-f]indazol-1-yl 1,3-thiazole-2-carboxylate] — 1.8-fold lower, 3.3 nM
- Cc1ccoc1C(=O)O[C@]1(C(=O)SCCO)CC[C@H]2[C@@H]3CCC4=Cc5c(cnn5-c5ccc(F)cc5)C[C@]4(C)[C@H]3[C@@H](O)C[C@@]21C [Example 58, (1R,3aS,3bS,10aR,10bS,11S,12aS)-7-(4-Fluorophenyl)-11-hydroxy-1-{[(2-hydroxy-ethyl)thio]carbonyl}-10a,12a-dimethyl-1,2,3,3a,3b,4,5,7,10,10a,10b,11,12,12a-tetradecahydrocyclopenta[5,6]naphtho[1,2-f]indazol-1-yl 3-methylfuran-2-carboxylate] — within 1.5-fold, 5.5 nM
- CCC(=O)O[C@]1(C(=O)SC(C)C#N)CC[C@H]2[C@@H]3CCC4=Cc5c(cnn5-c5ccc(F)cc5)C[C@]4(C)[C@H]3[C@@H](O)C[C@@]21C (stereo partly drawn) [Example 12, (1R,3aS,3bS,10aR,10bS,11S,12aS)-1-{[(1-Cyanoethyl)thio]carbonyl}-7-(4-fluoro-phenyl)-11-hydroxy-10a,12a-dimethyl-1,2,3,3a,3b,4,5,7,10,10a,10b,11,12,12a-tetradecahydrocyclopenta[5,6]naphtho[1,2-f]indazol-1-yl propanoate] — within 1.5-fold, 5.8 nM
- Cc1cc(-n2ncc3c2C=C2CC[C@@H]4[C@H]([C@@H](O)C[C@@]5(C)[C@H]4CC[C@]5(OC(=O)C4CC4)C(=O)OCC#N)[C@@]2(C)C3)ccn1 [Example 142, Cyanomethyl(1R,3aS,3bS,10aR,10bS,11S,12aS)-1-[(cyclopropylcarbonyl)oxy]-11-hydroxy-10a,12a-dimethyl-7-(2-methylpyridin-4-yl)-1,2,3,3a,3b,4,5,7,10,10a,10b,11,12,12a-tetradecahydrocyclopenta[5,6]naphtho[1,2-]indazole-1-carboxylate] — 3.7-fold lower, 1.6 nM
- C=C(CSC(=O)[C@@]1(OC(=O)c2ccco2)CC[C@H]2[C@@H]3CCC4=Cc5c(cnn5-c5ccc(F)cc5)C[C@]4(C)[C@H]3[C@@H](O)C[C@@]21C)OCOC [Example 88, (1R,3aS,3bS,10aR,10bS,11S,12aS)-7-(4-fluorophenyl)-11-hydroxy-1-({[2-(methoxymethoxy)prop-2-en-1-yl]sulfanyl}carbonyl)-10a,12a-dimethyl-1,2,3,3a,3b,4,5,7,10,10a,10b,11,12,12a-tetradecahydrocyclopenta[5,6]naphtho[1,2-f]indazol-1-yl furan-2-carboxylate] — 2.2-fold higher, 13 nM
- C[C@]12Cc3cnn(-c4ccc(F)nc4)c3C=C1CC[C@H]1[C@@H]3CC[C@](OC(=O)C4CC4)(C(=O)SCC#N)[C@@]3(C)C[C@H](O)[C@@]12F [Example 207, (1R,3aS,3bS,10aS,10bR,11S,12aS)-1-{[(Cyanomethyl)sulfanyl]carbonyl}-10b-fluoro-7-(6-fluoropyridin-3-yl)-11-hydroxy-10a,12a-dimethyl-1,2,3,3a,3b,4,5,7,10,10a,10b,11,12,12a-tetradecahydrocyclopenta[5,6]naphtho[1,2-f]indazol-1-yl cyclopropanecarboxylate] — 1.8-fold lower, 3.3 nM
- CC(=O)O[C@]1(C(=O)CO)CC[C@H]2[C@@H]3CCC4=Cc5c(cnn5-c5ccc(F)cc5)C[C@]4(C)[C@H]3[C@@H](O)C[C@@]21C [Example 122, (1R,3aS,3bS,10aR,10bS,11S,12aS)-7-(4-Fluorophenyl)-11-hydroxy-1-(hydroxyacetyl)-10a,12a-dimethyl-1,2,3,3a,3b,4,5,7,10,10a,10b,11,12,12a-tetradecahydrocyclopenta[5,6]naphtho[1,2-f]indazol-1-yl acetate] — 4.5-fold lower, 1.3 nM
- Cc1cc(C(=O)O[C@]2(C(=O)SCC#N)CC[C@H]3[C@@H]4CCC5=Cc6c(cnn6-c6ccc(F)cc6)C[C@]5(C)[C@H]4[C@@H](O)C[C@@]32C)no1 [Example 116, (1R,3aS,3bS,10aR,10bS,11S,12aS)-1-{[(Cyanomethyl)sulfanyl]carbonyl}-7-(4-fluorophenyl)-11-hydroxy-10a,12a-dimethyl-1,2,3,3a,3b,4,5,7,10,10a,10b,11,12,12a-tetradecahydrocyclopenta[5,6]naphtho[1,2-f]indazol-1-yl 5-methylisoxazole-3-carboxylate] — within 1.5-fold, 6.9 nM
- COCC(=O)O[C@]1(C(=O)SCF)CC[C@H]2[C@@H]3CCC4=Cc5c(cnn5-c5ccc(F)cc5)C[C@]4(C)[C@H]3[C@@H](O)C[C@@]21C [Example 34, (1R,3aS,3bS,10aR,10bS,11S,12aS)-1-{[(Fluoromethyl)thio]carbonyl}-7-(4-fluoro-phenyl)-11-hydroxy-10a,12a-dimethyl-1,2,3,3a,3b,4,5,7,10,10a,10b,11,12,12a-tetradecahydrocyclopenta[5,6]naphtho[1,2-f]indazol-1-yl methoxyacetate] — 3.5-fold lower, 1.7 nM
